Activity calls are given as the source filed them. How the calls were made is not given here.
Test: blockers of an Epstein-Barr virus protein-peptide interaction – biochemical, fluorescence polarization, dose response (AID 1419)
Settings: cell-free protein-peptide binding, 2 h; for fold change: measured here: P channel fold over control, at 54 µM

Structure (SMILES)	IC50	fold change
COC(=O)c1ccc(C)c(NC(=O)CCSc2ccc(Cl)cc2)c1	> 54 µM (inactive)	1.15
Nn1c(SCC(=O)NC(=O)NCc2ccco2)nnc1-c1ccc(OC(F)F)cc1	31.1 µM (inactive)	1.09
N#CC1=C(N)C(C#N)(C#N)C(c2cccnc2)C2CCCC=C12 (configuration not stated)	4.81 µM	2.44
CCOC(=O)c1ccc2c(c1)C1C=CCC1C(C(=O)O)N2 (configuration not stated)	4.11 µM	1.2
O=C1NC(=Nc2ccc(Cl)cc2)/C(=C/c2ccco2)S1	7.25 µM	0.667
COc1ccc(NC(=O)NC(=O)c2cc(OCC(F)(F)F)ccc2OCC(F)(F)F)cc1	> 54 µM (inactive)	0.943
Cc1ccc(C)c(S(=O)(=O)C(C#N)c2nc3ccccc3nc2N2CCCC2)c1 (configuration not stated)	4.06 µM	1.67
CN1C[C@H](CO)C=C2c3cccc4[nH]cc(c34)C[C@H]21	12.4 µM	1.62
Nc1c(C(=O)NCC2CCCO2)sc2nc3c(c(-c4ccco4)c12)CC/C3=C\c1ccco1 (configuration not stated)	< 0.42 µM	3.22
Nc1nnc(-c2cc3c(ccc4ccccc43)oc2=O)s1	< 0.42 µM	2.34
O=C(CSc1ccsc1[N+](=O)[O-])Nc1cccc(F)c1	> 54 µM (inactive)	1.11
COC(=O)c1c(=O)n(O)c2ccc(OC)cc2[n+]1[O-]	4.69 µM	2.93
CC(C)(O)[C@H]1O[C@H]2CC[C@@]3(C)[C@@](O)(CC[C@H]4Cc5c([nH]c6ccccc56)[C@@]43C)C2=CC1=O	2.03 µM	3.36
C1=C(c2ccc(-c3ccccc3)cc2)Nc2ncnn2C1c1ccco1 (configuration not stated)	< 0.42 µM	15.5
Cc1ccc(/C=C2\Sc3ccccc3C2=O)s1	> 54 µM (inactive)	1.61
CCCNC(=O)COC(=O)c1[nH]c(C)c(C(=O)OCC)c1C	> 54 µM (inactive)	0.937
Fc1ccc(NCc2cccnc2)cc1F	2.14 µM	3.89
COc1ccccc1N1C(C)=CC(=C(C#N)c2nc3ccccc3s2)C=C1C	9.03 µM	27.7
CCOC(=O)[C@]1(C#N)[C@@H]2C=CC(C(C)=O)=CN2[C@@H](C(N)=O)[C@@H]1c1ccsc1	4.35 µM	3.68
Cc1c(N=C2N=C(NC(=O)c3cccs3)c3ccccc32)c(=O)n(-c2ccccc2)n1C	3.19 µM	4.49
C=C1c2cc(OC)ccc2NC(=O)N1CC	8.9 µM	1.91

Structure (SMILES)	IC50	fold change
CCOc1ccc(N=C2NC(=O)S/C2=C\c2ccc(N(C)C)cc2)cc1	5.8 µM	8.81
CCCCC1=CC2=C(c3ccco3)C(=O)C(C)(OC(=O)c3ccc(OC)cc3)C(=O)C2=CN1CCc1ccccn1 (configuration not stated)	> 54 µM (inactive)	1.16
CN(C)c1ccc(/C=C/C(=O)c2cc(Cl)ccc2O)cc1	15.9 µM	1.94
CCOC(=O)/C(=C/c1ccc(N2CCC(c3ccccc3)=N2)cc1)C(C)=O	3.78 µM	11.8
O=C1c2cccc3c([N+](=O)[O-])ccc(c23)C(=O)N1Cc1cccnc1	> 54 µM (inactive)	5.08
Cc1ccccc1C(=O)Nc1ccc2c(C#N)c3nc4ccccc4nc3n2c1	13.7 µM	0.993
CCOc1ccc(C2CC(c3c(O)c4ccccc4oc3=O)=NN2c2ccccc2)cc1OC (configuration not stated)	2.06 µM	49.3
CCOc1ccc(-c2c(C#N)c(N)nc3sc(C(=O)c4ccccc4)c(N)c23)cc1	> 54 µM (inactive)	4.62
Cc1ccc(-c2cn3nc(-c4ccccc4)c(-c4ccccc4)nc3n2)cc1	1.31 µM	37.6
CC(C)(C)c1cc[n+](-c2[nH]c(=O)sc2/C=N/NC([S-])=Nc2ccccc2)cc1	< 0.42 µM	13.6
Cc1ccc(CNC(=O)c2ccc(-n3cccc3)cc2)cc1	> 54 µM (inactive)	1.15
Cn1c(SCC(=O)Nc2ccc3nc(SCC(=O)N4CCCC4)sc3c2)nnc1-c1ccc(N)cc1	36.4 µM (inactive)	1.12
Cc1oc2cc(O)ccc2c(=O)c1-c1nncn1-c1ccccc1	0.46 µM	10.9
CCSc1cc(N2CCCC2)nc(-c2ccccc2Cl)n1	45.7 µM (inactive)	1.05
C=CCSc1nccc(-c2cc(Cl)sc2Cl)n1	> 54 µM (inactive)	0.953
O=C(c1ccccc1)c1ccc(O)cc1O	< 0.42 µM	48.2
CCOC(=O)c1oc2cc(OCC(=O)OC)ccc2c(=O)c1-c1ccc(OC)c(OC)c1	> 54 µM (inactive)	0.99
CC(C)(CCl)C(=O)Nc1ccc(OC(F)(F)F)cc1	> 54 µM (inactive)	1.14
O=C(CSc1ccsc1[N+](=O)[O-])Nc1cc(F)ccc1F	> 54 µM (inactive)	1.05
CCOC(=O)c1cc2n(c1/N=C/N(C)C)-c1ccccc1C2=O	< 0.42 µM	42.3
Cc1ccccc1N1C(=O)NC(=O)/C(=C\c2ccc3c(c2)CCCN3Cc2ccccc2)C1=O	3.61 µM	10.3

Structure (SMILES)	IC50	fold change
COc1ccc(NC(=O)C2Cc3ccccc3CN2C(=O)c2ccccc2)cn1 (configuration not stated)	8.48 µM	3.29
COc1ccc2c3c(cccc13)C(=O)N(O)C2=O	4.72 µM	2.23
O=C(c1ccco1)[C@@H]1[C@@H]2C(=O)N(c3ccc(F)cc3)C(=O)[C@@H]2C2c3ccccc3C=CN21 (some centres not stated)	6.26 µM	2.53
CNC(=S)NN(c1ccccc1)c1ccccc1	> 54 µM (inactive)	1.01
COc1ccc2c(c1)c1nc3ccccc3nc1n2Cc1ccc(OC)c(OC)c1	> 54 µM (inactive)	2
C=CCc1cccc2cc(C(=O)Nc3ccc(S(=O)(=O)Nc4nnc(CC)s4)cc3)c(=O)oc12	> 54 µM (inactive)	1.08
Nc1cc(C(=O)O)c(N)c2c1C(=O)c1ccccc1C2=O	< 0.42 µM	4.83
O=[N+]([O-])c1ccc2[nH]c(O)c(N=NC(=S)Nc3cccnc3)c2c1	> 54 µM (inactive)	0.61
Cc1ccc([N+](=O)[O-])cc1-c1ccc(/C=C(\C#N)c2[nH]nc(N)c2C#N)o1	> 54 µM (inactive)	0.727
Cc1c(O)c2c3c(cccc3c1O)C(=O)N(c1ccccc1)C2=O	1.41 µM	7.05
CCOC(=O)c1c(=O)n(O)c2ccc(OC)cc2[n+]1[O-]	8.11 µM	1.8
CN(c1ncc(C(F)(F)F)cc1Cl)N1C(=O)c2cccc(N)c2C1=O	3.83 µM	1.88
O=c1oc2ccccc2cc1-c1nc(-c2cccs2)cs1	2.96 µM	25.8
CCCN(CCC)S(=O)(=O)c1ccc(C(=O)OCCN2C(=O)c3cccc4c(N5CCOCC5)ccc(c34)C2=O)cc1	1.5 µM	96.6
COc1ccc(-c2nc(CS(=O)CC(=O)NCc3cccnc3)c(C)o2)cc1 (configuration not stated)	> 54 µM (inactive)	1.01
COc1cc(/C=C2\SC(=O)N(c3cccc(Cl)c3)C2=O)cc([N+](=O)[O-])c1O	3.51 µM	1.04
CN(C)c1ccc(N=Cc2nc(-c3ccccc3)oc2O)cc1	6.01 µM	21.1
COC(=O)c1cc(N2CCN(C)CC2)nc2ccccc12	32.8 µM (inactive)	1.52
O=C1c2cccc3c(N4CCCCC4)ccc(c23)C(=O)N1c1ccccn1	< 0.42 µM	11.5
COc1nc(N/N=C/c2ccc(-c3cccc([N+](=O)[O-])c3)o2)nc(N2CCOCC2)n1	24.2 µM	0.463
CCN(CC)c1ccc(/C=C(/C#N)c2nc3ccc(C)cc3[nH]2)c(OC(C)C)c1	1.51 µM	22

Structure (SMILES)	IC50	fold change
CCn1c(SC(C)C(=O)O)nc2sc3c(c2c1=O)CCC3 (configuration not stated)	> 54 µM (inactive)	1.12
CCN(CC)C(=O)COC(=O)c1cc(-c2ccco2)nc2ccccc12	28.4 µM	1.44
NC(=O)c1cc2ccc(O)cc2oc1=NCc1ccccc1	< 0.42 µM	34.3
O=C1NC(=O)N(Cc2ccco2)C(=O)/C1=C/c1ccc(-c2cccc([N+](=O)[O-])c2)o1	16.5 µM	2.15
O=C(Nc1ccc(Cl)cc1)Nc1nnc(-c2ccncc2)s1	> 54 µM (inactive)	1.08
CCCOc1cc(N(CC)CC)ccc1/C=C(/C#N)c1nc2ccc(C)cc2[nH]1	11.8 µM	12.9
O=c1cc(-c2ccccc2)nc2c(-c3ccccc3)c(C(F)(F)F)[nH]n12	> 54 µM (inactive)	1.02
O=c1ccc2cc3c4c(c2o1)CCCN4CCC3	< 0.42 µM	36.4
CC1C2C(C)N(C)C(=O)N(C)C2N(C)C(=O)N1C (configuration not stated)	8.68 µM	8.94
CCn1c(O)c(/C=N/N=C/c2ccccc2)c2ccc(C3=NNC(=O)CC3)cc21	14.8 µM	9.01
O=C(COc1ccc(/C=N/NC(=O)c2ccc(O)cc2)cc1)Nc1ccc([N+](=O)[O-])cc1	2.97 µM	0.957
Cc1nc2nc(-c3cccs3)cn2nc1C	1.87 µM	6.46
Nc1ccc2nc3c(=O)n(C4CCCCC4)c(=O)[nH]c3nc2c1	< 0.42 µM	101
COc1ccc(Cc2nnc(NC(=O)Cc3cccs3)s2)cc1	> 54 µM (inactive)	1.04
COc1cc2c(cc1NC(=O)CN1C(=O)NC3(CCc4ccccc43)C1=O)oc1ccccc12 (configuration not stated)	> 54 µM (inactive)	0.93
O=C(OCCN1C(=O)c2cccc3c(N4CCOCC4)ccc(c23)C1=O)c1ccc(Cl)cc1Cl	1.81 µM	84.3
C=CCN1C(=O)/C(=C\C=C2\N(C)c3ccccc3C2(C)C)SC1=S	5.07 µM	8.39
CCO[C@H]1OC(C(=O)N2CCCCCCC2)=C[C@@H](c2ccc(C(F)(F)F)cc2)[C@@H]1CCCO	> 54 µM (inactive)	0.95
